Test results from patent publication US5441968A, “Therapeutically active fluoro substituted benzimidazoles” (priority 1993, dated 1995).

Columns and labels:
[1] = Chemical stability in aqueous buffer solution at different pH values; type: physicochemical; conditions: for Chemical stability at pH2 t 10%: pH 2, 37° C., time after which 10% has decomposed
Procedure: The chemical stability of the compounds of the invention has been followed kinetically at low concentration at 37° C. in aqueous buffer solution at different pH values. The results in Table 3 show the half life (t 1/2) at pH 7, that is the time period after which half the amount of the original compound remains unchanged, and t10% at pH 2, that is the time period after which 10% of the original compound has decomposed.

[2] = test system: gastric acid secretion; assay: Inhibition of gastric acid secretion in the conscious dog; type: in vivo, dog (Harrier); conditions: for Inhibition of acid secretion: id
Procedure: The potency for inhibition of acid secretion is measured in the male rat and the dog, both intravenously and intraduodenally. When it comes to relevance of the animal test data for potency of a given compound in man for the present type of compounds, it is believed that potency in man will correspond to a level somewhere between what is measured in the male rat and what is measured in the dog.
Inhibition of Gastric Acid Secretion and Bioavailability in the Conscious Dog
Harrier dogs of either sex were used. They were equipped with a duodenal fistula for the administration of test compounds or vehicle and a cannulated ventricular fistula for the collection of gastric secretions.
Before secretory tests the animals were fasted for about 18 h but water was freely allowed. Gastric acid secretion was stimulated by a 4 h infusion of histamine dihydrochloride (12 ml/h) at a dose producing about 80% of the individual maximal secretory response, and gastric juice collected in consecutive 30-min fractions. Test substance or vehicle was given id or iv 1 h after starting the histamine infusion, in a volume of 0.5 ml/kg body weight. The acidity of the gastric juice samples were determined by titration to pH 7.0, and the acid output calculated. The acid output in the collection periods after administration of test substance or vehicle were expressed as fractional responses, setting the acid output in the fraction preceding administration to 1.0. Percentage inhibition was calculated from fractional responses elicited by test compound and vehicle. ED50 values were obtained by graphical interpolation on log dose-response curves, or estimated from single-dose experiments under the assumption of the same slope of the dose-response curve for all test compounds. All results reported are based on acid output 2 h after dosing.

Row | Structure (SMILES) | Chemical stability at pH2 t 10% [1] | ED50 ([2]; Canis lupus familiaris, dog, id administration, histamine-stimulated, acid output 2 h after dosing) | Inhibition of acid secretion ([2]; Dog 1, 1.5 μmol/kg) | Inhibition of acid secretion ([2]; Dog 2, 1.5 μmol/kg) | half-life ([1]; pH 7, 37° C., read-out: Chemical stability at pH 7 t1/2 (converted))
1 | COc1ccnc(C[S+]([O-])c2nc3c(F)cccc3n2COC(=O)OCc2ccccc2)c1 (stereo not drawn) [Example 1, 4-fluoro-2-[[(4-methoxy-2-pyridinyl)methyl]sulfinyl]-1H-benzimidazole-1-ylmethyl benzyl carbonate] | 2 h | – | – | – | –
2 | CCOC(=O)OCn1c([S+]([O-])Cc2cc(OC)ccn2)nc2c(F)cccc21 (stereo not drawn) [Example 2, 4-fluoro-2-[[(4-methoxy-2-pyridinyl)methyl]sulfinyl] -1H-benzimidazole-1-ylmethyl ethyl carbonate] | 3 h | 1.3 µmol/kg | 55% | no effect | 16 h
